From the METLIN SMRT retention time set (Domingo-Almenara et al. 2019)
Each block holds one compound with its values, some of them ahead of it.

Assay: gradient 5% acetonitrile 3 min, to 50% in 2 min, to 85% in 15 min, held 3 min, 100 µL/min
Details: column: Zorbax Extend-C18 2.1 x 50 mm; eluents: water / acetonitrile, 0.1% formic acid
Outline: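 Retention times come from adduct peaks that were picked computationally and then checked by hand. The standards, pure and pooled in mixtures of ~100 molecules, were run on a Zorbax Extend-C18 column (2.1 × 50 mm, 1.8 μm) at 100 μL/min with water and acetonitrile, each with 0.1% formic acid. Detection was by quadrupole time-of-flight mass spectrometry in positive and negative ionization mode, with a dead volume of 40 μL and a dwell volume of 900 μL.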

SMILES: O=C(NCc1ccccc1Cl)C(=O)c1c[nH]c2ccccc12
RP-LC retention time: 936 s

SMILES: COc1ccc(NC(=O)N2CCc3c(C(=O)NC4CCN(C)CC4)cccc32)cc1
RP-LC retention time: 603 s

SMILES: COc1ccc(CNC(=O)C2CCCN(c3cc(=O)n(C)c(=O)n3C)C2)cc1 (stereo not drawn)
RP-LC retention time: 663 s

SMILES: Cc1ccc(Cn2nc3c(S(=O)(=O)N4CCCCC4)cccn3c2=O)c(C)c1
RP-LC retention time: 967 s

SMILES: CN(Cc1nc2ccccc2n1CC(=O)N(C)c1ccccc1)C(=O)c1ccco1
RP-LC retention time: 694 s

SMILES: Cc1ccn2cc(C(=O)NCc3ccc(OC(C)C)cc3)nc2c1
RP-LC retention time: 713 s

SMILES: Cc1cc(C)c(NC(=O)C2CCN(S(C)(=O)=O)c3ccccc3O2)c(C)c1 (stereo not drawn)
RP-LC retention time: 900 s

SMILES: COCCc1noc(-c2cnc3nc(C)ccc3c2Nc2ccc(F)cc2)n1
RP-LC retention time: 688 s

SMILES: Cc1cc2n(n1)CCC(=O)N2CCCC(=O)N1CCN(C(=O)c2ccco2)CC1
RP-LC retention time: 604 s

SMILES: Cc1ccc(Nc2c(-c3ccc([N+](=O)[O-])cc3)nc3cc(C)ccn23)cc1
RP-LC retention time: 790 s

SMILES: CCC(C)NC(=O)COc1nc(C)nc2onc(-c3cccc(F)c3)c12 (stereo not drawn)
RP-LC retention time: 932 s

SMILES: CCOc1ccc(S(=O)(=O)N2CCC(C(=O)NCCO)CC2)cc1
RP-LC retention time: 665 s

SMILES: Cc1nc2cc3c(cc2n1CC(=O)NC(C)c1ccc2c(c1)OCCCO2)OCCO3 (stereo not drawn)
RP-LC retention time: 634 s

SMILES: Cc1noc(-c2cc(=O)n(CC(=O)NCc3ccccc3)c3ccccc23)n1
RP-LC retention time: 812 s

SMILES: COc1ccc(-c2cc(N3CCN(C(=O)c4ccc(C(C)(C)C)cc4)CC3)ncn2)cc1
RP-LC retention time: 795 s

SMILES: CCN1CCN(CCCNC(=O)CN2C(=O)C3CCCCN3c3ccc(C(=O)N(C)C)cc32)CC1 (stereo not drawn)
RP-LC retention time: 579 s

SMILES: CCc1nc(-c2csc(S(=O)(=O)N3CCCC(C(=O)N(C)c4ccc(C)cc4)C3)c2)no1 (stereo not drawn)
RP-LC retention time: 1060 s

SMILES: CC(=O)NCc1ccc(-c2noc(-c3cccc(Br)c3)n2)s1
RP-LC retention time: 922 s

SMILES: COc1cc(-c2cccc(Cl)c2)nc2ccc(NC(C)=O)cc12
RP-LC retention time: 668 s

SMILES: Cc1[nH]c(C(=O)N2CCC(CC(=O)NCc3ccc4c(c3)OCO4)CC2)c(C)c1C
RP-LC retention time: 774 s

SMILES: O=S(=O)(NCc1nc(-c2ccc(NS(=O)(=O)c3ccccc3)cc2)no1)c1ccccc1
RP-LC retention time: 877 s

SMILES: CCc1cc(C(=O)N2CCCC2)nc2cc(-c3cccs3)nn12
RP-LC retention time: 655 s

SMILES: COc1ccc(CNC(=O)c2cn3cc(C)ccc3n2)cc1OC
RP-LC retention time: 614 s

SMILES: Cc1ccoc1C(=O)N1CCCn2ccnc2C1c1cnn(C)c1 (stereo not drawn)
RP-LC retention time: 570 s

SMILES: O=C(NCC1CCN(C(=O)Oc2ccccc2)CC1)C1c2ccccc2Oc2ccccc21
RP-LC retention time: 949 s

SMILES: Cc1cccc(-c2nnc(SCC(=O)N3CCC(C)CC3)o2)c1
RP-LC retention time: 969 s

SMILES: CCC(=O)NCC12CCC=C1N(C)C(=O)CC2 (stereo not drawn)
RP-LC retention time: 616 s

SMILES: O=S(=O)(c1ccc(F)cc1)N1CCc2nc(-c3ccc(Cl)cc3)ncc2C1
RP-LC retention time: 1170 s

SMILES: Cc1ccc(C(=O)CC2(O)C(=O)Nc3ccc(F)cc32)cc1C (stereo not drawn)
RP-LC retention time: 776 s

SMILES: CCC(=O)N1c2ccc(S(=O)(=O)N3CCCCC3)cc2CC1C(=O)NCc1ccc(C)cc1 (stereo not drawn)
RP-LC retention time: 955 s

SMILES: CCOC(=O)N1CCC(NC(=O)CCc2cc3ccc(C)cc3[nH]c2=O)CC1
RP-LC retention time: 689 s

SMILES: Cc1cc2c(cc1S(=O)(=O)N1CCCC1C(=O)Nc1ccc(C(C)C)cc1)OCC(=O)N2 (stereo not drawn)
RP-LC retention time: 902 s

SMILES: O=C(c1ccccc1F)N1CCC2(C1)C(=O)Nc1ccccc12 (stereo not drawn)
RP-LC retention time: 662 s

SMILES: Cc1cc2nn(CC(=O)Nc3ccc(C)c(C)c3)c(=O)n2c(-c2ccccc2)n1
RP-LC retention time: 868 s

SMILES: CC(C)CCNC(=O)C1(C)Cn2nc(C(=O)NCCc3c[nH]c4ccccc34)cc2C(=O)N1C (stereo not drawn)
RP-LC retention time: 786 s

SMILES: O=c1n(CC2CO2)c(=O)n(CC2CO2)c(=O)n1CC1CO1 (stereo not drawn)
RP-LC retention time: 675 s

SMILES: O=C(Nc1ccc(N2CCOCC2)cc1)C1=CCN(Cc2ccc(F)cc2)CC1
RP-LC retention time: 603 s

SMILES: Cn1nc(-c2nc(C3CC3)no2)c2c1CCN(C(=O)c1c(F)cccc1Cl)C2
RP-LC retention time: 837 s

SMILES: CCN1c2cc(F)ccc2C(=O)NC12CCN(C(=O)c1cccc(C)c1)CC2
RP-LC retention time: 824 s

SMILES: CCOCc1nc(C2CCCN(C(=O)NC(C)C)C2)no1 (stereo not drawn)
RP-LC retention time: 704 s

SMILES: CCC(=O)N1CCc2sc(C(=O)N3CCN(c4cccc(Cl)c4)CC3)cc2C1
RP-LC retention time: 900 s

SMILES: Cc1ccc(-c2nc(C3CCN(S(=O)(=O)c4c(C)cc(C)cc4C)CC3)no2)cc1
RP-LC retention time: 1420 s

SMILES: CCOC(=O)c1nc(Nc2ccc(OC)c(Cl)c2)c2ccccc2n1
RP-LC retention time: 886 s

SMILES: Cc1cccc(S(=O)(=O)N2CCc3c(C(=O)NCCCN4CCCCC4)cccc32)c1
RP-LC retention time: 680 s

SMILES: CN1C(=O)C(C)(C(=O)Nc2cccc(Cl)c2)Oc2cccnc21 (stereo not drawn)
RP-LC retention time: 889 s

SMILES: CCc1nc(OCC(=O)NCc2cc(OC)ccc2OC)c2c(C)c(C)oc2n1
RP-LC retention time: 971 s

SMILES: CCNC(=O)c1nc(C(=O)NCc2cc(F)cc(F)c2)cs1
RP-LC retention time: 781 s

SMILES: Cn1c(=O)c(N2CCC(C(=O)NCCCN3CCCC3=O)CC2)nc2ccccc21
RP-LC retention time: 645 s

SMILES: O=C(Nc1ccc(OC(F)(F)F)cc1)C1CCCN(C(=O)c2cc(-c3ccncc3)n[nH]2)C1 (stereo not drawn)
RP-LC retention time: 692 s

SMILES: COC(=O)c1cnc2nc(C)ccc2c1Nc1ccc(OC)cc1
RP-LC retention time: 647 s

SMILES: CCN(CC)CCNC(=O)c1ccc(CS(=O)(=O)c2ccc(Br)cc2)o1
RP-LC retention time: 634 s

SMILES: O=C(NCC1(c2cccs2)CC1)c1ccc(F)c(F)c1
RP-LC retention time: 887 s

SMILES: CCC(C)CC(=O)N1CCCN(C2=NS(=O)(=O)C(c3ccc(Cl)cc3)=C2C)CC1 (stereo not drawn)
RP-LC retention time: 944 s

More lines, now with the values ahead:

RP-LC retention time: 696 s
SMILES: COc1ccc(-c2nnc(-c3cc(S(=O)(=O)NCc4cccnc4)ccc3Cl)o2)cc1

RP-LC retention time: 1320 s
SMILES: Cc1ccccc1-c1nc(-c2ccc(N3CCSCC3)nc2)no1

RP-LC retention time: 917 s
SMILES: Cc1cccc(N2C(=O)CN(Cc3ccccc3Cl)[C@H]3CS(=O)(=O)C[C@H]32)c1

RP-LC retention time: 616 s
SMILES: CCOC(=O)c1noc2nc(C)nc(N3CCN(Cc4ccccc4)CC3)c12

RP-LC retention time: 742 s
SMILES: CCCn1c(-c2cccc(C(=O)NCc3ccco3)c2)nc2cccnc21

RP-LC retention time: 958 s
SMILES: COC(=O)c1ccccc1NC(=O)N1CCCn2nc(-c3cccn3C)cc21

RP-LC retention time: 603 s
SMILES: COc1ccccc1NC(=O)N1CCN(C2=CC3=NC(C)CN3C=N2)CC1 (stereo not drawn)

RP-LC retention time: 1140 s
SMILES: Cc1ccc(-c2noc(C3CC3)n2)cc1S(=O)(=O)N1CCC(C(=O)N2CCc3ccccc32)CC1

RP-LC retention time: 666 s
SMILES: O=C(c1cccc(-n2cnnn2)c1)N1CCN(Cc2nc(-c3ccc(F)cc3)cs2)CC1

RP-LC retention time: 831 s
SMILES: COc1ccc(NC(=O)Cn2c(=O)nc(N3CCC(C)CC3)c3ccccc32)c(OC)c1

RP-LC retention time: 804 s
SMILES: Cc1ccccc1-c1noc(CN2N=NC3C(=O)N(c4ccc(F)c(F)c4)C(=O)C32)n1 (stereo not drawn)

RP-LC retention time: 725 s
SMILES: Cc1ccccc1N1CCN(C(=O)C2CC(=O)N(CCc3ccccc3)C2)CC1 (stereo not drawn)

RP-LC retention time: 971 s
SMILES: O=C(Nc1ccccc1)C1CCCN(c2nc3ccsc3c(=O)n2Cc2ccc(F)cc2)C1 (stereo not drawn)

RP-LC retention time: 584 s
SMILES: CCn1c(N2CCC(C(=O)N3CCN(c4ccccn4)CC3)CC2)cc(=O)n(C)c1=O

RP-LC retention time: 656 s
SMILES: COc1cccc2c(Nc3ccccc3)cc(C(=O)N3CCSCC3)nc12

RP-LC retention time: 762 s
SMILES: O=C(NCC1CCCCC1)C1CCCN(c2ccc(-c3ccccc3)nn2)C1 (stereo not drawn)

RP-LC retention time: 554 s
SMILES: NC(=O)CSc1ccc(-c2ccccn2)nn1

RP-LC retention time: 718 s
SMILES: CCCCc1ccc(NC(=O)CSc2ccc(-c3ccncc3)nn2)cc1

RP-LC retention time: 638 s
SMILES: O=C(Cn1ccc2ccc(N3CCOCC3)nc21)NC1CCN(Cc2ccccc2)CC1

RP-LC retention time: 622 s
SMILES: c1ccc(COCCc2noc(C3CCCCN3)n2)cc1 (stereo not drawn)

RP-LC retention time: 646 s
SMILES: CCc1cc(C(=O)N2CCN(CC)CC2)nc2cc(-c3cccs3)nn12

RP-LC retention time: 1030 s
SMILES: CCc1nc(-c2csc(S(=O)(=O)N3CCCC(C(=O)Nc4ccccc4)C3)c2)no1 (stereo not drawn)

RP-LC retention time: 633 s
SMILES: CC1=C(C(=O)NC2CCN(Cc3ccccc3)CC2)C2(CCCCC2)OC1=O

RP-LC retention time: 754 s
SMILES: Cc1cccc(NC(=O)C2CCCN(c3nnc(C)c4c(C)n(-c5ccccc5)nc34)C2)c1C (stereo not drawn)

RP-LC retention time: 608 s
SMILES: O=C(N[C@@H]1CN(Cc2ccccn2)C[C@H]1CO)C1(c2ccccc2)CC1

RP-LC retention time: 1040 s
SMILES: CCOc1ccccc1C(=O)n1nc(C)c(S(=O)(=O)N2CCCC2)c1C

RP-LC retention time: 911 s
SMILES: Cc1cc(N2CCCC2)nc(N2CCN(S(=O)(=O)c3ccc(-c4ccccc4)cc3)CC2)n1

RP-LC retention time: 581 s
SMILES: CCOc1ccccc1CN1CCn2c(nnc2[C@@H]2C[C@@H](O)CN2Cc2cccnc2)C1

RP-LC retention time: 948 s
SMILES: O=C(Nc1ccccc1C(F)(F)F)N1CCc2nc(-c3ccccc3)ncc2C1

RP-LC retention time: 649 s
SMILES: CN(C)S(=O)(=O)c1ccc(-c2nnc(C(=O)NCc3ccccn3)o2)cc1

RP-LC retention time: 1060 s
SMILES: O=C(c1cn(-c2cc(N3CCCCC3)ncn2)cn1)N1CC=C(c2ccccc2)CC1

RP-LC retention time: 652 s
SMILES: Cc1ccc(NC(=O)NCCn2c(-c3ccncc3)nc3cccnc32)c(Cl)c1

RP-LC retention time: 752 s
SMILES: CCOc1ccc(NC(=O)N2CCN(c3nc4cccnc4s3)CC2)cc1

RP-LC retention time: 578 s
SMILES: CCCC(=O)N1CCc2c([nH]c3ccccc23)C1c1ccc(Cl)cc1 (stereo not drawn)

RP-LC retention time: 1100 s
SMILES: O=C(NCc1cccc(C(F)(F)F)c1)C1CCCN(c2nccnc2Sc2ccccc2)C1 (stereo not drawn)
